Reference: the supplement of paper PMC10477900
Structures can show the parent of a compound that is named as a salt.

Legend:
HCT116 [1] = details: 72 h
Description: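 HCT116 control and MTA1-KO (CRISPR) HCT116 cells were seeded in 384-well plates (800 cells/well), treated 16 h later with 237 metabolism-related anticancer drugs at five doses (10 uM, 2 uM, 400 nM, 80 nM, 16 nM) for 72 h, two replicates; viability by CCK8. Values are % inhibition of viability relative to untreated cells, plus fitted IC50.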

HCT116 [2] = test: viability inhibition vs untreated; higher = more cytotoxic; details: 72 h

SMILES	IC50 (HCT116 [1]; genotype: MTA1-KO)	IC50 (HCT116 [1]; genotype: control)	viability inhibition (HCT116 [2]; genotype: MTA1-KO, 16 nM)	viability inhibition (HCT116 [2]; genotype: MTA1-KO, 80 nM)	viability inhibition (HCT116 [2]; genotype: MTA1-KO, 400 nM)	viability inhibition (HCT116 [2]; genotype: MTA1-KO, 2000 nM)	viability inhibition (HCT116 [2]; genotype: MTA1-KO, 10000 nM)	viability inhibition (HCT116 [2]; genotype: control, 16 nM)	viability inhibition (HCT116 [2]; genotype: control, 80 nM)	viability inhibition (HCT116 [2]; genotype: control, 400 nM)	viability inhibition (HCT116 [2]; genotype: control, 2000 nM)	viability inhibition (HCT116 [2]; genotype: control, 10000 nM)
N#CC(C#N)=NNc1ccc(OC(F)(F)F)cc1 [FCCP]	8.13 µM	9.04 µM	-7.63%	1.48%	-17.8%	-8.82%	87.2%	-7.79%	-5.69%	-13.2%	-7.17%	67%
NC(N)=O [Urea]	> 10 µM	> 10 µM	-19%	-12.8%	-10.1%	-15.4%	-12.3%	5.26%	1.82%	-7.36%	3.6%	-3.54%
O=C(O)C[C@H](O)C[C@H](O)/C=C/c1c(C2CC2)nc2ccccc2c1-c1ccc(F)cc1 [Pitavastatin calcium]	> 10 µM	3.1 µM	-24.4%	-25.7%	-30.7%	-23.8%	31%	11%	-0.547%	-0.73%	5.9%	75.5%
Cc1cc(-n2cccc2)c(S(C)(=O)=O)cc1C(=O)N=C(N)N [Eniporide]	6.22 µM	> 10 µM	-5.44%	3.61%	2.87%	16.5%	60.9%	1.06%	-2.91%	-4.47%	3.58%	8.84%
O=C(Oc1cc(S(=O)(=O)c2ccccc2)ccc1[N+](=O)[O-])c1ccc(Cl)cc1	> 10 µM	> 10 µM	13.8%	11.7%	15.7%	20%	-32.5%	-2.81%	-4.51%	-7.2%	-8.31%	16.7%
Oc1cccc(-c2nc(N3CCOCC3)c3oc4ncccc4c3n2)c1 [PI103]	1.82 µM	5.97 µM	7.63%	-22.6%	-6.55%	42.3%	80.5%	-15.1%	-2.17%	-8.02%	-2.63%	80.1%
C/C(=C1/C(=O)Nc2ccc(NC(N)=O)cc21)c1ccc[nH]1 [BX517]	7.24 µM	6.88 µM	-1.27%	-4.96%	-15%	-7.43%	62.3%	7.33%	-2.63%	0.244%	10.4%	67.6%
COc1ccc2[nH]c([S@@+]([O-])Cc3ncc(C)c(OC)c3C)nc2c1 [Esomeprazole Magnesium]	> 10 µM	> 10 µM	2.7%	2.87%	3.11%	1.54%	3.86%	16.3%	11.1%	18%	11.9%	21.2%
COc1ccccc1OCC(O)COC(N)=O (stereo not drawn) [Methocarbamol]	> 10 µM	> 10 µM	-9.86%	-16.2%	-9.99%	-8.84%	-12%	-5.51%	-3.73%	-0.351%	5.2%	11%
CC(N)=NCc1cccc(CN)c1 [1400W dihydrochloride]	> 10 µM	> 10 µM	5.1%	-4.81%	-3.44%	-9.66%	42.6%	5.38%	-11.1%	-13.9%	-9.74%	2.89%
S=c1nc[nH]c2nc[nH]c12 [Mercaptopurine]	6.61 µM	2.74 µM	-23.8%	-26.8%	-16.8%	-13.3%	63%	-20.2%	-15.2%	-11.9%	24.6%	90.5%
Cc1nc(Nc2ccc(F)cc2)nc(N2CCc3ccccc3C2C)c1C (stereo not drawn) [Revaprazan hydrochloride]	> 10 µM	> 10 µM	-4.67%	-1.6%	-2.29%	-13.6%	-33.6%	20.9%	17.7%	11%	7.17%	-10.8%
COc1cc2c(cc1O)CC[C@@H]1[C@@H]2CC[C@]2(C)[C@@H](O)CC[C@@H]12 [2-Methoxyestradiol]	3.34 µM	> 10 µM	12.6%	9.89%	15.7%	38.7%	80.2%	8.28%	14.6%	22.6%	24.1%	33.6%
N#C/C(=C\c1cn(-c2ccccc2)c2ccccc12)C(=O)O [UK5099]	> 10 µM	> 10 µM	12.9%	-2.58%	-5.75%	-0.99%	14%	8.77%	3.74%	4.2%	20.2%	40%
O=C(Nc1ccc(O)cc1)c1ccccc1O [Osalmid]	> 10 µM	> 10 µM	-19.6%	-14.3%	-16%	-6.29%	-7.75%	-15.5%	-18.3%	-10.9%	-10.7%	5%
CCC(C)(Oc1ccc(C2(c3ccc(OC(C)(CC)C(=O)O)cc3)CCCCC2)cc1)C(=O)O (stereo not drawn) [Clinofibrate]	> 10 µM	> 10 µM	12.9%	5.15%	19.9%	28%	51.7%	-13.2%	-10%	-7.17%	-15.8%	0.951%
CC1=NS(=O)(=O)c2cc(Cl)ccc2N1 [Diazoxide]	> 10 µM	> 10 µM	7.55%	5.32%	16.2%	16%	35.1%	3.13%	23.2%	0.951%	4.98%	3.64%
CCN1C(=O)CNc2ncc(-c3ccc(-c4ncn[nH]4)nc3C)nc21 [CC115]	2.13 µM	4.96 µM	5.59%	-19.9%	-8.79%	27.2%	81.2%	-13.9%	-10.3%	-8.79%	7.12%	74.9%
O=c1oc2cc(O)ccc2s1 [Tioxolone]	> 10 µM	> 10 µM	-23.8%	-21.4%	-19%	-28.2%	-26.1%	0.941%	-1.9%	-1.53%	-13.6%	-6.09%
C/C(=N\NC(=O)c1cccc(S(=O)(=O)N2CCOCC2)c1)c1cc(Cl)ccc1O [SP2509]	0.69 µM	0.493 µM	13%	7.45%	18%	98.5%	99.6%	-5.87%	-2.4%	14.8%	104%	103%

SMILES	IC50 (HCT116 [1]; genotype: MTA1-KO)	IC50 (HCT116 [1]; genotype: control)	viability inhibition (HCT116 [2]; genotype: MTA1-KO, 16 nM)	viability inhibition (HCT116 [2]; genotype: MTA1-KO, 80 nM)	viability inhibition (HCT116 [2]; genotype: MTA1-KO, 400 nM)	viability inhibition (HCT116 [2]; genotype: MTA1-KO, 2000 nM)	viability inhibition (HCT116 [2]; genotype: MTA1-KO, 10000 nM)	viability inhibition (HCT116 [2]; genotype: control, 16 nM)	viability inhibition (HCT116 [2]; genotype: control, 80 nM)	viability inhibition (HCT116 [2]; genotype: control, 400 nM)	viability inhibition (HCT116 [2]; genotype: control, 2000 nM)	viability inhibition (HCT116 [2]; genotype: control, 10000 nM)
Clc1ccccc1C(c1ccccc1)(c1ccccc1)n1ccnc1 [Clotrimazole]	> 10 µM	> 10 µM	-16.8%	-16.8%	-15%	-23.3%	-4.67%	0.201%	-0.602%	-4.37%	-8.31%	2.92%
COc1ccccc1OCC(O)CN1CCN(CC(=O)Nc2c(C)cccc2C)CC1 (stereo not drawn) [Ranolazine]	6.87 µM	> 10 µM	-0.081%	5.69%	8.98%	2.99%	74.3%	-8.25%	-12.6%	-15.3%	-15%	8.96%
CN1CCN(C(=O)COc2ccc(C34CC5CC(CC(C5)C3)C4)cc2)CC1	9.27 µM	> 10 µM	0.53%	0.971%	2.4%	3.12%	55.4%	-2.5%	-2.81%	-1.07%	-8.95%	7.86%
Nc1ccc(/C=C/C(=O)NCc2cc3cc(-c4ccc(C(=O)N5CCC(F)(F)CC5)cc4)cc(-c4ccc(F)cc4)c3o2)cn1 [KPT9274]	> 10 µM	> 10 µM	-17.2%	-10%	-24%	-17.1%	8.44%	15.8%	-9.31%	7.28%	14.9%	13.4%
COc1cccc2cc(-c3nc(C4CCC(C(=O)O)CC4)n4ncnc(N)c34)[nH]c12 (stereo not drawn) [OSI027]	> 10 µM	> 10 µM	12.5%	9.23%	10.1%	-2.44%	2.62%	-12.5%	-20.5%	-21.1%	13.8%	42.3%
COc1cnc(NS(=O)(=O)c2ccc(N)cc2)nc1 [Sulfameter]	> 10 µM	> 10 µM	-10.8%	-13.8%	-0.547%	-4.82%	-3.61%	0.414%	5.13%	12.1%	8.51%	0.478%
O=c1cc(-c2ccc(O)cc2)oc2cc(O)cc(O)c12 [Apigenin]	> 10 µM	> 10 µM	-5.33%	-2.46%	-0.547%	-8.58%	12.7%	20.8%	0.478%	4.05%	4.56%	44.8%
COC(=O)[C@@H](N)CCCN=C(N)N[N+](=O)[O-] [L-NAME hydrochloride]	> 10 µM	> 10 µM	-9.14%	-19.4%	-19.9%	-26%	24.3%	-17.9%	-12.2%	-11.4%	-20.1%	-19.3%
Cc1ccc2nc(CN(CCN(Cc3nc4ccc(C)cc4[nH]3)Cc3nc4ccc(C)cc4[nH]3)Cc3nc4ccc(C)cc4[nH]3)[nH]c2c1	6.48 µM	7.39 µM	0.589%	-11.3%	-3.97%	0.541%	76.8%	6.37%	14.6%	2.85%	20.1%	64.1%
Cc1cc(-c2nc(-c3ccc(OC(F)(F)F)cc3)no2)nn1Cc1ccnc(N2CCN(C3CC3)CC2)c1 [BAY 87-2243]	> 10 µM	< 0.016 µM	21%	24.5%	21.4%	19.2%	19.2%	86.8%	72.7%	68.2%	67.4%	70.2%
CC(C)n1nc(-c2cc3cc(O)ccc3[nH]2)c2c(N)ncnc21 [Torkinib]	> 10 µM	8.06 µM	-28.4%	-28.6%	-28.2%	-9.28%	27.1%	-1.58%	-1.28%	-0.73%	8.7%	65.9%
Cc1c(-c2cnccn2)ssc1=S [Oltipraz]	> 10 µM	> 10 µM	-30.8%	-24.9%	-26.7%	-26.6%	-33.9%	-15.3%	-6.71%	-20.1%	-19.1%	-6.16%
C[C@H](Oc1cc(-c2cnn(C3CCNCC3)c2)cnc1N)c1c(Cl)ccc(F)c1Cl [(S)-crizotinib]	9.42 µM	> 10 µM	-3.98%	-2.9%	-13.5%	-16.1%	66.9%	6.82%	-13.4%	-0.064%	-12.1%	-7.51%
CNC(=O)c1cccc(-c2ccc3c(N4CCOC[C@@H]4C)nc(N4CCOC[C@@H]4C)nc3n2)c1 [Vistusertib]	0.189 µM	0.319 µM	16.2%	29.8%	63.1%	83.3%	76.2%	-6.57%	-15%	45.6%	74.4%	69.9%
C#CCC(Cc1cnc2nc(N)nc(N)c2n1)c1ccc(C(=O)N[C@@H](CCC(=O)O)C(=O)O)cc1 (stereo partly drawn) [Pralatrexate]	0.022 µM	< 0.016 µM	37.5%	71.4%	71.7%	75%	77.3%	52.4%	77.9%	78.8%	80.6%	79.1%
CC[C@H](C)C(=O)O[C@H]1CCC=C2C=C[C@H](C)[C@H](CC[C@@H]3C[C@@H](O)CC(=O)O3)[C@H]21 [Mevastatin]	> 10 µM	> 10 µM	-20.4%	-7.46%	-17.3%	-17.5%	-22.4%	-7.08%	9.09%	5.14%	1.68%	23.8%
C/C=C/c1cc(OC)c(OC)cc1OC [alpha-Asarone]	> 10 µM	> 10 µM	-3.55%	-23.5%	-15.1%	-10.5%	9.18%	-6.36%	-8.84%	-15.6%	-8.42%	-0.859%
COc1ccc2[nH]cc(CCNC(C)=O)c2c1 [Melatonine]	> 10 µM	> 10 µM	11.6%	12.1%	6.76%	7.43%	8.55%	10.2%	9.39%	9.78%	24.1%	14.5%
COc1cc(/C=C/C(=O)CC(=O)/C=C/c2ccc(O)c(OC)c2)ccc1O [Curcumin]	7.8 µM	7.85 µM	-19.2%	-16.2%	-19.6%	-14.2%	61.7%	-1.96%	7.36%	-4.61%	4.83%	60.8%
